Results published in US20210254056A1, “IDENTIFICATION AND TARGETED MODULATION OF GENE SIGNALING NETWORKS” (CAMP4 THERAPEUTICS CORPORATION, priority 2017, published 2021).

How the values were obtained:
[1] = test system: primary human hepatocytes; assay: RNA-seq of primary human hepatocytes treated with 39 small molecules (pilot and validation)
[2] = test system: hepatocytes; assay: RNA-seq of hepatocytes treated with Phase III failure compounds; conditions: hepatocytes
Description: RNA-seq was performed to determine the effects of the compounds on hepatocytes.
Significance was determined by the criteria of FPKM≥0.5, a log 2(fold-change)≥1, and a […].

CCCc1cc(=O)[nH]c(=S)[nH]1 [MT-127, Propylthiouracil]
significant modulation of gene expression ([1]; RNA-seq, p-value≤0.05, primary human hepatocytes, the modulated genes are listed in the block): significantly (p-value≤0.05) modulate | Number (#) of genes having significantly changed expression ([1]; pilot RNA-seq study of Example 2, significance: FPKM≥0.5, log 2(fold change)≥1, q-value ≤0.05): 8

COc1nc(C)cnc1NS(=O)(=O)c1cccnc1-c1ccc(-c2nnco2)cc1 [Zibotentan]
Number (#) of genes having significantly changed expression ([2]; RNA-seq, Phase III failure compounds, significance: FPKM≥0.5, log 2(fold-change)≥1, q-value≥0.05 (so in the source)): 505 | significant modulation of expression of disease genes ([2]; RNA-seq, q≤0.05, genes in the value or listed in the block): significantly (q≤0.05) modulate expression | B2M expression, RNA-seq result ([2]; gene B2M): −0.49 | B9D2 expression, RNA-seq result ([2]; gene B9D2): −0.43 | BAAT expression, RNA-seq result ([2]; gene BAAT): 0.17 | BBOX1 expression, RNA-seq result ([2]; gene BBOX1): −0.45 | BBS10 expression, RNA-seq result ([2]; gene BBS10): 0.26 | BCHE expression, RNA-seq result ([2]; gene BCHE): 0.02 | BCKDHB expression, RNA-seq result ([2]; gene BCKDHB): −0.16 | BCKDK expression, RNA-seq result ([2]; gene BCKDK): −0.21 | BCO1 expression, RNA-seq result ([2]; gene BCO1): −0.38 | BCR expression, RNA-seq result ([2]; gene BCR): 0.14 | BLNK expression, RNA-seq result ([2]; gene BLNK): 0.09 | BLOC1S3 expression, RNA-seq result ([2]; gene BLOC1S3): 0.15 | BMPR1A expression, RNA-seq result ([2]; gene BMPR1A): 0.51 | BRAF expression, RNA-seq result ([2]; gene BRAF): 0.82 | BSCL2 expression, RNA-seq result ([2]; gene BSCL2): −3.20 | BTD expression, RNA-seq result ([2]; gene BTD): 0.19 | C4A expression, RNA-seq result ([2]; gene C4A): 0.20 | C9 expression, RNA-seq result ([2]; gene C9): −0.13 | C10orf10 expression, RNA-seq result ([2]; gene C10orf10): −0.49 | C10orf11 expression, RNA-seq result ([2]; gene C10orf11): −0.62 | C15orf41 expression, RNA-seq result ([2]; gene C15orf41): 0.50 | CA2 expression, RNA-seq result ([2]; gene CA2): −0.44 | CA5A expression, RNA-seq result ([2]; gene CA5A): 0.23 | CA12 expression, RNA-seq result ([2]; gene CA12): 0.06 | CAV1 expression, RNA-seq result ([2]; gene CAV1): 0.15 | CCND1 expression, RNA-seq result ([2]; gene CCND1): 0.25 | CD46 expression, RNA-seq result ([2]; gene CD46): 0.05 | CD81 expression, RNA-seq result ([2]; gene CD81): −0.76 | CD320 expression, RNA-seq result ([2]; gene CD320): −0.95 | CDAN1 expression, RNA-seq result ([2]; gene CDAN1): 0.10 | CDH1 expression, RNA-seq result ([2]; gene CDH1): 0.50 | CEP19 expression, RNA-seq result ([2]; gene CEP19): −0.43 | CEP83 expression, RNA-seq result ([2]; gene CEP83): 0.33 | CEP164 expression, RNA-seq result ([2]; gene CEP164): 0.05 | CEP290 expression, RNA-seq result ([2]; gene CEP290): 0.01 | CFB expression, RNA-seq result ([2]; gene CFB): −0.28 | CFHR2 expression, RNA-seq result ([2]; gene CFHR2): −0.93 | CHRM3 expression, RNA-seq result ([2]; gene CHRM3): 0.20 | CIDEC expression, RNA-seq result ([2]; gene CIDEC): −0.40 | CLDN1 expression, RNA-seq result ([2]; gene CLDN1): 0.16 | COG1 expression, RNA-seq result ([2]; gene COG1): 0.25
